Assay results: patent US12227501B2, “3-amino-2-[2-(acylamino)pyridin-4-yl]-1,5,6,7-tetrahydro-4h-pyrrolo[3,2-c]pyridin-4-one as CSNK1 inhibitors” (Bayer Aktiengesellschaft, priority 2019, dated 2025)

Tests used:
Assay type in all cases: biochemical
human CSNK1A1 [1] = biological target: T1, human CSNK1A1 (Homo sapiens (Human), UniProt P48729); assay: CSNK1A1 Assay 2 (ADP-Glo, 1 μM ATP); conditions: substrate biotin-Ahx-KRRRAL-pS-VASLPGL, read-out: CSNK1A1 Assay 2 IC50 [mol/l] (median)
Experimental: CSNK1A1-inhibitory activity of compounds of the present invention in presence of 1 μM adenosine-tri-phosphate (ATP) was quantified employing the CSNK1A1 assay as described in the following paragraphs. In essence, the enzyme activity is measured by quantification of the adenosine-di-phosphate (ADP), which is generated as a co-product of the enzyme reaction, via the “ADP-Glo™ Kinase Assay” kit from the company Promega. This detection system works as follows: In a first step the ATP not consumed in the kinase reaction is quantitatively converted to cAMP employing an adenylate cyclase (“ADP-Glo-reagent”), then the adenylate cyclase is stopped and the ADP generated in the kinase reaction converted to ATP which generates in a luciferase-based reaction a glow-luminescence signal (“Kinase Detection Reagent”). Recombinant fusion protein of N-terminal Glutathion-S-Transferase (GST) and full-length human CSNK1A1, expressed by baculovirus infected insect cells and purified via Glutathion affinity chromatography, was purchased from Life Technologies (product no. PV4174) and used as enzyme. As substrate for the kinase reaction the biotinylated peptide biotin-Ahx-KRRRAL-pS-VASLPGL (C-terminus in amide form) was used which can be purchased e.g. from the company Biosyntan (Berlin-Buch, Germany).
For the assay 50 nl of a 100 fold concentrated solution of the test compound in DMSO was pipetted into a white 1536-well microtiter plate (Greiner Bio-One, Frickenhausen, Germany), 2 μL of a solution of CSNK1A1 in aqueous assay buffer [50 mM HEPES pH 7.5, 10% (v/v) glycerol, 10 mM MgCl2, 50 mM NaCl, 1 mM dithiothreitol, 0.01% (w/v) bovine serum albumin, 0.01% (v/v) Triton X-100] were added and the mixture was incubated for 15 min at 22° C. to allow pre-binding of the test compounds to the enzyme before the start of the kinase reaction. […] The concentration of CSNK1A1 was adjusted depending of the activity of the enzyme lot and was chosen appropriate to have the assay in the linear range, a typical concentrations are about 0.0375 ng/μL. The reaction was stopped by the addition of 2.5 μL of “ADP-Glo-reagent” (1:1.5 fold diluted with water) and the resulting mixture was incubated at 22° C. for 1 h to convert the ATP not consumed in the kinase reaction completely […]. Subsequently 2.5 μL of the “kinase detection reagent” (1.2 fold more concentrated than recommended by the producer) were added, the resulting mixture was incubated at 22° C. for 1 h and then the luminescence measured with a suitable measurement instrument (e.g. Viewlux™ from Perkin-Elmer). The amount of emitted light was taken as a measure for the amount of ADP generated and thereby for the activity of the CSNK1A1.

human CSNK1A1 [2] = biological target: T1, human CSNK1A1; assay: CSNK1A1 High ATP Assay (ADP-Glo, 1 mM ATP); conditions: read-out: CSNK1A1 high ATP assay IC50 [mol/l] (median)
Experimental: CSNK1A1-inhibitory activity of compounds of the present invention in presence of 1 mM adenosine-tri-phosphate (ATP) was quantified employing the CSNK1A1-high-ATP-assay as described in the following paragraphs. In essence, the enzyme activity is measured by quantification of the adenosine-di-phosphate (ADP), which is generated as a co-product of the enzyme reaction, via the “ADP-Glo™ Kinase Assay” kit from the company Promega. This detection system works as follows: In a first step the ATP not consumed in the kinase reaction is quantitatively converted to cAMP employing an adenylate cyclase (“ADP-Glo-reagent”), then the adenylate cyclase is stopped and the ADP generated in the kinase reaction converted to ATP which generates in a luciferase-based reaction a glow-luminescence signal (“Kinase Detection Reagent”).
Recombinant fusion protein of N-terminal Glutathion-S-Transferase (GST) and full-length human CSNK1A1, expressed by baculovirus infected insect cells and purified via Glutathion affinity chromatography, was purchased from Life Technologies (product no. PV4174) and used as enzyme. As substrate for the kinase reaction the biotinylated peptide biotin-Ahx-KRRRAL-pS-VASLPGL (C-terminus in amide form) was used which can be purchased e.g. from the company Biosyntan (Berlin-Buch, Germany).
For the assay 50 nl of a 100 fold concentrated solution of the test compound in DMSO was pipetted into a white low volume 384-well microtiter plate (Greiner Bio-One, Frickenhausen, Germany), 2 μL of a solution of CSNK1A1 in aqueous assay buffer [50 mM HEPES pH 7.5, 10% (v/v) glycerol, 10 mM MgCl2, 50 mM NaCl, 1 mM dithiothreitol, 0.01% (w/v) bovine serum albumin, 0.01% (v/v) Triton X-100] were added and the mixture was incubated for 15 min at 22° C. to allow pre-binding of the test compounds to the enzyme before the start of the kinase reaction. […] The concentration of CSNK1A1 was adjusted depending of the activity of the enzyme lot and was chosen appropriate to have the assay in the linear range, a typical concentration is about 0.4 ng/μL. The reaction was stopped by the addition of 2.5 μL of “ADP-Glo-reagent” (1:1.5 fold diluted with water) and the resulting mixture was incubated at 22° C. for 1 h to convert the ATP not consumed in the kinase reaction completely […]. Subsequently 2.5 μL of the “kinase detection reagent” (1.2 fold more concentrated than recommended by the producer) were added, the resulting mixture was incubated at 22° C. for 1 h and then the luminescence measured with a suitable measurement instrument (e.g. Viewlux™ from Perkin-Elmer). The amount of emitted light was taken as a measure for the amount of ADP generated and thereby for the activity of the CSNK1A1.

human CSNK1D = human CSNK1D (Homo sapiens (Human), UniProt P48730); assay: CSNK1D Assay (ADP-Glo, 1 μM ATP); conditions: read-out: CSNK1D IC50 [mol/l] (median)
Experimental: CSNK1 D-inhibitory activity of compounds of the present invention in presence of 1 μM adenosine-tri-phosphate (ATP) was quantified employing the CSNK1D assay as described in the following paragraphs. In essence, the enzyme activity is measured by quantification of the adenosine-di-phosphate (ADP), which is generated as a co-product of the enzyme reaction, via the “ADP-Glo™ Kinase Assay” kit from the company Promega. This detection system works as follows: In a first step the ATP not consumed in the kinase reaction is quantitatively converted to cAMP employing an adenylate cyclase (“ADP-Glo-reagent”), then the adenylate cyclase is stopped and the ADP generated in the kinase reaction converted to ATP which generates in a luciferase-based reaction a glow-luminescence signal (“Kinase Detection Reagent”). Recombinant fusion protein of N-terminal Glutathion-S-Transferase (GST) and full-length human CSNK1D, expressed by baculovirus infected insect cells and purified via Glutathion affinity chromatography, was purchased from Life Technologies (product no. PV3665) and used as enzyme. As substrate for the kinase reaction the biotinylated peptide Btn-Ahx-[…] (C-terminus in amide form) was used which can be purchased e.g. from the company Biosyntan (Berlin-Buch, Germany).
For the assay 50 nl of a 100 fold concentrated solution of the test compound in DMSO was pipetted into a white 1536-well microtiter plate (Greiner Bio-One, Frickenhausen, Germany), 2 μL of a solution of CSNK1D in aqueous assay buffer [50 mM HEPES pH 7.5, 10% (v/v) glycerol, 10 mM MgCl2, 50 mM NaCl, 1 mM dithiothreitol, 0.01% (w/v) bovine serum albumin, 0.01% (v/v) Triton X-100] were added and the mixture was incubated for 15 min at 22° C. to allow pre-binding of the test compounds to the enzyme before the start of the kinase reaction. […] The concentration of CSNK1 D was adjusted depending of the activity of the enzyme lot and was chosen appropriate to have the assay in the linear range, a typical concentration is about 0.5 ng/μL. The reaction was stopped by the addition of 2.5 μL of “ADP-Glo-reagent” (1:1.5 fold diluted with water) and the resulting mixture was incubated at 22° C. for 1 h to convert the ATP not consumed in the kinase reaction completely […]. Subsequently 2.5 μL of the “kinase detection reagent” (1.2 fold more concentrated than recommended by the producer) were added, the resulting mixture was incubated at 22° C. for 1 h and then the luminescence measured with a suitable measurement instrument (e.g. Viewlux™ from Perkin-Elmer). The amount of emitted light was taken as a measure for the amount of ADP generated and thereby for the activity of the CSNK1D.

[3] = biological target: wild-type Epidermal Growth Factor Receptor (EGFR) (Homo sapiens (Human), UniProt P00533); assay: WT-EGFR Kinase Assay (TR-FRET, 2 mM ATP); conditions: EGFR Wildtyp- 2 mM ATP IC50 [mol/l] (median)
Sequence of wild-type Epidermal Growth Factor Receptor (EGFR) (P00533 669-1210): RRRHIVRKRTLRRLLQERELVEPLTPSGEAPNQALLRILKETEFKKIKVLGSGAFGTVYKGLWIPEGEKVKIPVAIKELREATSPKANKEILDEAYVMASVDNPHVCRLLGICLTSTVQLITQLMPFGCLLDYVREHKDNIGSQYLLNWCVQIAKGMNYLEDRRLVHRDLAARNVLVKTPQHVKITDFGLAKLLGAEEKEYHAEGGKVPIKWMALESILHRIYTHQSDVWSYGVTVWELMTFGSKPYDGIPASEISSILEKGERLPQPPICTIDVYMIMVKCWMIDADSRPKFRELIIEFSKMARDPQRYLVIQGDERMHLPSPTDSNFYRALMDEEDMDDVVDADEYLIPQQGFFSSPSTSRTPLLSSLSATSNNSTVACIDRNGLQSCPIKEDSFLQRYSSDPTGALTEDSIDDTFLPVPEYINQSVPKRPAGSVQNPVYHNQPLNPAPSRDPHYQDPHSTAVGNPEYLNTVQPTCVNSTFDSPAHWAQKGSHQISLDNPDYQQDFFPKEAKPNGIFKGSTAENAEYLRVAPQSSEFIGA

T1 sequence (P48729 whole entry): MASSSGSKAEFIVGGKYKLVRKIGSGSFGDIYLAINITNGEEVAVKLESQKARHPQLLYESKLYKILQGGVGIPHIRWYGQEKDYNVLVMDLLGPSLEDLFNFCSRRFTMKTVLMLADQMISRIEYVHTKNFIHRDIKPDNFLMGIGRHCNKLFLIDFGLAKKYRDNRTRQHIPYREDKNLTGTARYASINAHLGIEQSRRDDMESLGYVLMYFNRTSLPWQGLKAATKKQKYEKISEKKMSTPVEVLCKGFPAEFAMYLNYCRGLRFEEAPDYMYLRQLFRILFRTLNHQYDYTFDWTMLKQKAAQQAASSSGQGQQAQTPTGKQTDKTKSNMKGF
Sequence of human CSNK1D (P48730 whole entry): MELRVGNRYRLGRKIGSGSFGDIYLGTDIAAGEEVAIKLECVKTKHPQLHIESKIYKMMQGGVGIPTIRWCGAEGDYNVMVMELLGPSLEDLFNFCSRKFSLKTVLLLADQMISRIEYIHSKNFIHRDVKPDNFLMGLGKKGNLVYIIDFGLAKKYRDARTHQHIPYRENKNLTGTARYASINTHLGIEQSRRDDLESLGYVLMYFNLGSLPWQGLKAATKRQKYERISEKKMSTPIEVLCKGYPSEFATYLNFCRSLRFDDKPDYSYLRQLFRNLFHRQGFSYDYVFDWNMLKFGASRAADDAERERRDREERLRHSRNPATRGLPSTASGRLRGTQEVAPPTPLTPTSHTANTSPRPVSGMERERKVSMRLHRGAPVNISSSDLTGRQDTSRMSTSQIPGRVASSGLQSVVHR

Row | Compound | IC50 (human CSNK1A1 [1]) [nM] | IC50 (human CSNK1A1 [2]) [nM] | IC50 (human CSNK1D) [nM] | IC50 [3] [µM]
1 | CC1Cc2[nH]c(-c3ccnc(NC(=O)Cc4ccncc4)c3)c(Nc3ccccc3)c2C(=O)N1C (racemic) [Example 97, N-{4-[3-anilino-5,6-dimethyl-4-oxo-4,5,6,7-tetrahydro-1H-pyrrolo[3,2-c]pyridin-2-yl]pyridin-2-yl}-2-(pyridin-4-yl)acetamide] | 4.4 | 47 | 5.73 | 0.529
2 | CC1Cc2[nH]c(-c3ccnc(NC(=O)Cc4ccc(F)cc4)c3)c(Nc3ccccc3F)c2C(=O)N1C (racemic) [Example 100, N-{4-[3-(2-fluoroanilino)-5,6-dimethyl-4-oxo-4,5,6,7-tetrahydro-1H-pyrrolo[3,2-c]pyridin-2-yl]pyridin-2-yl}-2-(4-fluorophenyl)acetamide] | 3.97 | 254 | 15.6 | 3.83
3 | CC1(C)Cc2[nH]c(-c3ccnc(NC(=O)C(CC(F)F)c4ccc(F)cc4)c3)c(Nc3cccc(F)c3Cl)c2C(=O)N1 (racemic) [Example 109, N-{4-[3-(2-chloro-3-fluoroanilino)-6,6-dimethyl-4-oxo-4,5,6,7-tetrahydro-1H-pyrrolo[3,2-c]pyridin-2-yl]pyridin-2-yl}-4,4-difluoro-2-(4-fluorophenyl)butanamide] | 16.4 | 136 | 14.1 | > 20
4 | CC1(C)Cc2[nH]c(-c3ccnc(NC(=O)C(CC(F)F)c4ccc(S(C)(=O)=O)cc4)c3)c(Nc3ccccc3)c2C(=O)N1 (racemic) [Example 118, N-[4-(3-anilino-6,6-dimethyl-4-oxo-4,5,6,7-tetrahydro-1H-pyrrolo[3,2-c]pyridin-2-yl)pyridin-2-yl]-4,4-difluoro-2-[4-(methanesulfonyl)phenyl]butanamide (Racemate)] | 5.16 | 107 | 12.9 | 7.26
5 | O=C1NC2(CCC2)Cc2[nH]c(-c3ccnc(NC(=O)C(CC(F)F)c4ccc(F)cc4)c3)c(Nc3cccc(F)c3Cl)c21 (racemic) [Example 123, N-{4-[3′-(2-chloro-3-fluoroanilino)-4′-oxo-1′,4′,5′,7′-tetrahydrospiro[cyclobutane-1,6′-pyrrolo[3,2-c]pyridin]-2′-yl]pyridin-2-yl}-4,4-difluoro-2-(4-fluorophenyl)butanamide (Racemate)] | 13.5 | 29.1 | 9.91 | 0.0564
6 | CC1(C)Cc2[nH]c(-c3ccnc(NC(=O)C(CC(F)F)c4ccc(F)cc4)c3)c(Nc3cccc(F)n3)c2C(=O)N1 (racemic) [Example 128, 4,4-difluoro-2-(4-fluorophenyl)-N-(4-{3-[(6-fluoropyridin-2-yl)amino]-6,6-dimethyl-4-oxo-4,5,6,7-tetrahydro-1H-pyrrolo[3,2-c]pyridin-2-yl}pyridin-2-yl)butanamide (Racemate)] | 7.16 | 31.4 | 11.4 | > 20
7 | Cc1ccccc1Nc1c(-c2ccnc(NC(=O)C(C)c3ccc(F)cc3)c2)[nH]c2c1C(=O)NC(C)(C)C2 (racemic) [Example 132, N-{4-[6,6-dimethyl-3-(2-methylanilino)-4-oxo-4,5,6,7-tetrahydro-1H-pyrrolo[3,2-c]pyridin-2-yl]pyridin-2-yl}-2-(4-fluorophenyl)propanamide (Racemate)] | 24.3 | 915 | 32.9 | > 20
8 | Cc1ccccc1Nc1c(-c2ccnc(NC(=O)C(CC(F)F)c3ccc(F)cc3)c2)[nH]c2c1C(=O)NC(C)(C)C2 (racemic) [Example 135, N-{4-[6,6-dimethyl-3-(2-methylanilino)-4-oxo-4,5,6,7-tetrahydro-1H-pyrrolo[3,2-c]pyridin-2-yl]pyridin-2-yl}-4,4-difluoro-2-(4-fluorophenyl)butanamide (Racemate)] | 25.8 | 365 | 19.9 | > 20
9 | CC1(C)Cc2[nH]c(-c3ccnc(NC(=O)C(CNC(=O)OC(C)(C)C)c4ccc(F)cc4)c3)c(Nc3ccccc3)c2C(=O)N1 (racemic) [Example 138, tert-butyl [3-{[4-(3-anilino-6,6-dimethyl-4-oxo-4,5,6,7-tetrahydro-1H-pyrrolo[3,2-c]pyridin-2-yl)pyridin-2-yl]amino}-2-(4-fluorophenyl)-3-oxopropyl]carbamate (Racemate)] | 16.6 | 430 | 22.4 | 11.1
